Values after ≈ are worked out from the molar mass of the structure shown. Like-named read-outs stand apart in the source and are kept apart here.
Assays:
Assay type in all cases: cell-based
[1] = system: P388 lymphocytic leukemia cell line; assay: P388 lymphocytic leukemia cell line bioassay; conditions: Mus musculus, pure compound
A498 = assay: NCI cell line panel; conditions: Homo sapiens; for GI50: A498, Renal Cancer, read-out: Log10 GI50 (converted)
Description: (§1) Only two hundred years ago, many diseases ravaged humankind. Many of these diseases now have been controlled or eradicated. In the development of the means to treat or control these diseases, work with the appropriate common experimental animals was of critical importance. With the various types of cancers, and with the HIV virus, such work is presently ongoing. The research for the treatment of various types of cancer is coordinated in the United States by the National Cancer Institute (NCI). NCI, as a government entity, has been charged with assisting anti-cancer research. To establish whether a substance has anti-cancer activity, NCI has established a variety of protocols, one of which involves testing the candidate substance against a cell line panel containing 60 human tumor cell lines. This protocol has been verified and is generally accepted throughout the scientific community. This protocol and the established statistical means of evaluating the results obtained therefrom have been fully described in the literature. See Principles & Practice of Oncology PPO Updates, Volume 3, Number 10, October 1989, by Michael R. Boyd, M.D., Ph.D., for an in depth description of the test protocol. The statistical analysis is explained in "Display and Analysis of Patterns of Differential Activity of Drugs Against Human Tumor Cell Lines: Development of Means Graph and COMPARE Algorithm" Journal of the National Cancer Institute Reports Vol. 81, No. 14, Pg. 1088, Jul. 14, 1989, by K. D. Paull et al. Both of these references are incorporated herein by this reference thereto. The effectiveness and validity of the NCI in vitro protocol continues to be verified.

A549/ATCC = assay: NCI cell line panel; conditions: Homo sapiens, Non-Small Cell Lung Cancer; for GI50: read-out: Log10 GI50 (converted); for IC (TGI): read-out: Log10 TGI (converted)
Description: as §1

BT-549 = assay: NCI cell line panel; conditions: Homo sapiens
Description: as §1

CAKI-1 = assay: NCI cell line panel; conditions: Homo sapiens, Renal Cancer, read-out: Log10 GI50 (converted)
Description: as §1

CCRF-CEM = assay: NCI cell line panel; conditions: Homo sapiens, Leukemia; for GI50: read-out: Log10 GI50 (converted)
Description: as §1

COLO 205 = assay: NCI cell line panel; conditions: Homo sapiens; for LC50 (50% lethal concentration): COLO 205, read-out: Log10 LC50 (converted); for IC (TGI): read-out: Log10 TGI (converted)
Description: as §1

DU-145 = assay: NCI cell line panel; conditions: Homo sapiens, Prostate Cancer, read-out: Log10 GI50 (converted)
Description: as §1

HCC-2998 = assay: NCI cell line panel; conditions: Homo sapiens, Colon Cancer, read-out: Log10 GI50 (converted)
Description: as §1

HCT-15 = assay: NCI cell line panel; conditions: Homo sapiens, Colon Cancer, read-out: Log10 GI50 (converted)
Description: as §1

HL-60(TB) = assay: NCI cell line panel; conditions: Homo sapiens, Leukemia, read-out: Log10 GI50 (converted)
Description: as §1

K-562 = assay: NCI cell line panel; conditions: Homo sapiens, K562; Leukemia; read-out: Log10 GI50 (converted)
Description: as §1

LOX IMVI = assay: NCI cell line panel; conditions: Homo sapiens, Melanoma
Description: as §1

MDA-MB-231/ATCC = assay: NCI cell line panel; conditions: Homo sapiens, Breast Cancer, read-out: Log10 GI50 (converted)
Description: as §1

NCI-H23 = assay: NCI cell line panel; conditions: Homo sapiens, Non-Small Cell Lung Cancer, read-out: Log10 GI50 (converted)
Description: as §1

OVCAR-3 = assay: NCI cell line panel; conditions: Homo sapiens, Ovarian Cancer, read-out: Log10 GI50 (converted)
Description: as §1

OVCAR-4 = assay: NCI cell line panel; conditions: Homo sapiens, Ovarian Cancer, read-out: Log10 GI50 (converted)
Description: as §1

OVCAR-5 = assay: NCI cell line panel; conditions: Homo sapiens
Description: as §1

OVCAR-8 = assay: NCI cell line panel; conditions: Homo sapiens, Ovarian Cancer, read-out: Log10 GI50 (converted)
Description: as §1

PC-3 = assay: NCI cell line panel; conditions: Homo sapiens, Prostate Cancer; for GI50: read-out: Log10 GI50 (converted); for IC (TGI): read-out: Log10 TGI (converted)
Description: as §1

RPMI-8226 = assay: NCI cell line panel; conditions: Homo sapiens, Leukemia, read-out: Log10 GI50 (converted)
Description: as §1

RXF-393 = assay: NCI cell line panel; conditions: Homo sapiens, Renal Cancer; for GI50: read-out: Log10 GI50 (converted)
Description: as §1

SF-268 = assay: NCI cell line panel; conditions: Homo sapiens, CNS Cancer; for GI50: read-out: Log10 GI50 (converted); for IC (TGI): read-out: Log10 TGI (converted)
Description: as §1

SF-295 = assay: NCI cell line panel; conditions: Homo sapiens
Description: as §1

SF-539 = assay: NCI cell line panel; conditions: Homo sapiens, CNS Cancer, read-out: Log10 GI50 (converted)
Description: as §1

SN12C = assay: NCI cell line panel; conditions: Homo sapiens, Renal Cancer; for GI50: read-out: Log10 GI50 (converted)
Description: as §1

SNB-19 = assay: NCI cell line panel; conditions: Homo sapiens; for IC (TGI): read-out: Log10 TGI (converted)
Description: as §1

SNB-75 = assay: NCI cell line panel; conditions: Homo sapiens, CNS Cancer, read-out: Log10 GI50 (converted)
Description: as §1

SR = assay: NCI cell line panel; conditions: Homo sapiens, Leukemia, read-out: Log10 GI50 (converted)
Description: as §1

T-47D = assay: NCI cell line panel; conditions: Homo sapiens, T47D, Breast Cancer
Description: as §1

TK-10 = assay: NCI cell line panel; conditions: Homo sapiens
Description: as §1

[2] = read-out: Log10 TGI (converted)
[3] = read-out: Log10 GI50 (converted)

SMILES | GI50 (A498) [nM] | GI50 (A549/ATCC) [nM] | IC (TGI) (A549/ATCC) [nM] | GI50 (CAKI-1) [nM] | GI50 (CCRF-CEM) [nM] | LC50 (50% lethal concentration) (COLO 205) [nM] | IC (TGI) (COLO 205; COLO 205, Colon Cancer) [nM] | GI50 (DU-145) [nM] | GI50 (HCC-2998) [nM] | GI50 (HCT-15) [nM] | GI50 (HL-60(TB)) [nM] | GI50 (K-562) [nM] | GI50 (MDA-MB-231/ATCC) [nM] | GI50 (NCI-H23) [nM] | GI50 (OVCAR-3) [nM] | GI50 (OVCAR-4) [nM] | GI50 (OVCAR-8) [nM] | GI50 (PC-3) [nM] | IC (TGI) (PC-3) [nM] | GI50 (RPMI-8226) [nM] | also measured
C=C(Cl)/C=C/C(O)CC(=C)CC1OC2C(C)C(OC(=O)CC3CC(O)CC4(CC(C)(O)CC(C=C5COC(C(C)C(=O)CC6CC(OC)CC7(CC(O)CC(/C=C\CCCC8OC(O)(CC(O)C8C)C2O)O7)O6)C5C)O4)O3)C1O (stereo not shown) [spongistatin 5] | 0.0257 | 0.0209 | 75.9 | 0.0575 | 0.017 | 7.94 | 0.871 | 0.024 | 0.0631 | 0.0631 | 0.0129 | 0.1 | 0.251 | 0.0347 | 0.0151 | 14.1 | 0.257 | 0.0151 | 100 | 0.0129 | IC50 ([1]; PS (P388), read-out: ED50 (the source's name)): 0.066 ng/mL (≈ 0.058 nM); LC50 (50% lethal concentration) (A498; A498, read-out: Log10 LC50 (converted)): 87.1 nM; GI50 (BT-549; BT-549, read-out: Log10 GI50 (converted)): 0.219 nM; IC (TGI) (CCRF-CEM; [2]): 4.17 nM; GI50 (COLO 205; COLO 205, Colon Cancer, read-out: Log10 GI50 (converted)): 0.0129 nM; IC (TGI) (LOX IMVI; [2]): 11 nM; GI50 (OVCAR-5; OVCAR-5, read-out: Log10 GI50 (converted)): 4.07 nM; GI50 (RXF-393): 0.0417 nM; GI50 (SF-268): 0.151 nM; IC (TGI) (SF-268): 100 nM; GI50 (SF-295; SF-295, CNS Cancer, read-out: Log10 GI50 (converted)): 0.011 nM; GI50 (SF-539): 0.0229 nM; GI50 (SN12C): 0.0603 nM; GI50 (SNB-19; SNB-19, read-out: Log10 GI50 (converted)): 0.407 nM; IC (TGI) (SNB-19; SNB-19, CNS Cancer): 100 nM; GI50 (SNB-75): 0.012 nM; GI50 (SR): 0.012 nM; GI50 (T-47D; [3]): 100 nM; GI50 (TK-10; TK-10, Renal Cancer, read-out: Log10 GI50 (converted)): 36.3 nM
C=C/C=C/C(O)CC(=C)CC1OC2C(C)C(OC(=O)CC3CC(O)CC4(CC(C)(O)CC(C=C5COC(C(C)C(=O)CC6CC(OC)CC7(CC(O)CC(/C=C\CCCC8OC(O)(CC(O)C8C)C2O)O7)O6)C5C)O4)O3)C1O (stereo not shown) [spongistatin 7] | 2.69 | 3.47 | 100 | 12 | 0.24 | 75.9 | 3.8 | 1.58 | 1.41 | 6.17 | 0.0794 | 0.151 | 1.58 | 0.708 | 0.0759 | 24 | 3.98 | 0.372 | 52.5 | 0.708 | IC50 ([1]; P388, unit inferred, read-out: P388 ED50): 2.6 ng/mL (≈ 2.36 nM); IC (TGI) (BT-549; BT-549, Breast Cancer, read-out: Log10 TGI (converted)): 100 nM; GI50 (COLO 205; COLO 205, read-out: Log10 GI50 (converted)): 0.331 nM; GI50 (LOX IMVI; [3]): 0.468 nM; GI50 (OVCAR-5; OVCAR-5, Ovarian Cancer, read-out: Log10 GI50 (converted)): 20.9 nM; GI50 (RXF-393): 2.69 nM; IC (TGI) (RXF-393; [2]): 100 nM; GI50 (SF-268): 6.31 nM; IC (TGI) (SF-268): 100 nM; GI50 (SF-295; SF-295, read-out: Log10 GI50 (converted)): 0.407 nM; GI50 (SF-539): 0.49 nM; GI50 (SN12C): 2.19 nM; IC (TGI) (SN12C; [2]): 100 nM; GI50 (SNB-19; SNB-19, CNS Cancer, read-out: Log10 GI50 (converted)): 8.32 nM; IC (TGI) (SNB-19; SNB-19, CNS Cancer): 100 nM; GI50 (SNB-75): 0.372 nM; GI50 (SR): 0.0912 nM; IC (TGI) (T-47D; [2]): 100 nM; GI50 (TK-10; TK-10, read-out: Log10 GI50 (converted)): 56.2 nM; IC (TGI) (TK-10; TK-10, Renal Cancer, read-out: Log10 TGI (converted)): 100 nM
